Experimental data taken from patent US9840513B2 (AbbVie S.à.r.l., priority 2015, dated 2017).

Target: T1, F508delCFTR cell surface expression in CFBE41o-F508delCFTR-HRP cells (Homo sapiens, UniProt P13569, DEL508-508)
T1 construct: fused on or other part: Horseradish peroxidase (HRP) reporter inserted in the fourth exofacial (extracellular) loop of CFTR; expression is doxycycline-inducible
Assay: Cell Surface Expression-Horse Radish Peroxidase (CSE-HRP) Assay
Type: cell-based
Details: for EC50: CFBE41o-F508delCFTR-HRP cells, 18-24 hours at 33° C., 8-point curve, highest concentration 20 μM; for Maximum % activity (%): maximum at any tested concentration, normalized to on-plate positive control (3 μM)
From the text: Cell Surface Expression-Horse Radish Peroxidase (CSE-HRP) Assay:
A cellular assay for measuring the F508delCFTR cell surface expression after correction with test compounds was developed in human lung derived epithelial cell line (CFBE41o-) (Veit G et al, (2012) Mol Biol Cell. 23(21): 4188-4202). This was achieved by expressing the F508delCFTR mutation along with a horseradish peroxidase (HRP) in the fourth exofacial loop and then measuring the HRP activity using luminescence readout from these cells, CFBE41o-F508delCFTR-HRP, that were incubated overnight with the test corrector compounds. Briefly, for this primary assay, the CFBE41o-F508delCFTR-HRP cells were plated in 384-well plates (Greiner Bio-one; Cat 781080) at 4,000 cells/well along with 0.5 μg/mL doxycycline to induce the F508delCFTR-HRP expression and further incubated at 37° C., 5% CO2 for 72 hours. The test compounds were then added at the required concentrations and further incubated for 18-24 hours at 33° C. The highest concentration tested was 20 μM with an 8-point concentration response curve using a 3-fold dilution. Three replicate plates were run to determine one EC50. All plates contained negative controls (dimethyl sulfoxide, DMSO) and positive controls (3 μM of 3-[(2R,4R)-4-({[1-(2,2-difluoro-1,3-benzodioxol-5-yl)cyclopropyl]carbonyl}amino)-7-methoxy-3,4-dihydro-2H-chromen-2-yl]benzoic acid) as well as on-plate concentration response of the positive control. Post incubation, the plates were washed 5× times with Dulbecco's phosphate buffered saline (DPBS), followed by the addition of the HRP substrate, luminol (50 μL), and measuring the HRP activity using luminescence readout on EnVision® Multilabel Plate Reader (Perkin Elmer; product number 2104-0010). The raw counts from the experiment are analyzed using Accelrys® Assay Explorer v3.3.
Z′ greater than 0.5 was used as passing quality control criteria for the plates.
The Z′ is defined as: 1−[3*SDPositive Control+3*SDNegative Control/Absolute(MeanPositive Control−MeanNegative Control)] wherein “SD” is standard deviation.
The % activity measured at each of the 8 test concentrations of the test compound was normalized to the on-plate positive control using the following formula: % activity=[(test compound response DMSO response)/(positive control response DMSO response)]*100
The maximum % activity achieved for the test compound at any tested concentration is presented in Table 1 along with the EC50 calculated using the following general sigmoidal curve with variable Hill slope equation (described as Model 42 in the Accelrys® Assay Explorer v3.3 software): y=(a−d)/(1+(x/c)^b)+d
General sigmoidal curve with concentration, response, top, bottom, EC50 and Hill slope.
This model describes a sigmoidal curve with an adjustable baseline, a. The equation can be used to fit curves where response is either increasing or decreasing with respect to the independent variable, “x”.
“x” is a concentration of drug under test.
“a” is the maximum response, and “d” is the minimum response
“c” is the inflection point (EC50) for the curve. That is, “y” is halfway between the lower and upper asymptotes when x=c.
“b” is the slope-factor or Hill coefficient. The sign of b is positive when the response increases with increasing dose and is negative when the response decreases with increasing dose (inhibition).

T1 sequence (P13569 with tags, fused parts or gaps DEL508-508 limits assumed): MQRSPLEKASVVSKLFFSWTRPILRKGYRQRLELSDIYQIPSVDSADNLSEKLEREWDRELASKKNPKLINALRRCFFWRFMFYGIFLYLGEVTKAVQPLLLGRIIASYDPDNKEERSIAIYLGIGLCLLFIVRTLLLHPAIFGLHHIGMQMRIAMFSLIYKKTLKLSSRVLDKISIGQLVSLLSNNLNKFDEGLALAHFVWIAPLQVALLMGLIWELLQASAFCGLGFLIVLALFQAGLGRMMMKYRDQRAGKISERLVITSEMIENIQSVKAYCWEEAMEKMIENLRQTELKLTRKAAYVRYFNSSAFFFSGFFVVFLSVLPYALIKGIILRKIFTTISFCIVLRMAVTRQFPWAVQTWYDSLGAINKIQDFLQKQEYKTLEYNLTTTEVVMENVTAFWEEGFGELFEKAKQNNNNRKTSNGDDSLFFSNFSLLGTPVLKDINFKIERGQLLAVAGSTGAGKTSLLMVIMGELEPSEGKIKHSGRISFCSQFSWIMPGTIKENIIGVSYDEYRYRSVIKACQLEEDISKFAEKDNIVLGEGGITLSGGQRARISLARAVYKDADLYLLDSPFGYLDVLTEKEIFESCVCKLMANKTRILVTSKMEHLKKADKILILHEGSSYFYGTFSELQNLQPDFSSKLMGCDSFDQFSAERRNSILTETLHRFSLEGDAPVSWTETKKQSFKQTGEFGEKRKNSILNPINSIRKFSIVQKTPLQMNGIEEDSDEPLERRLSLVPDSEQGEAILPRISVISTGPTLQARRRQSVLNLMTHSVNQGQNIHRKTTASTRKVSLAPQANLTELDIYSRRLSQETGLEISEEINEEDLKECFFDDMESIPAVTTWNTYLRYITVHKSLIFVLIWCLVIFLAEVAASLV
T1 sequence (P13569 919-1480 limits assumed, stated change not applied): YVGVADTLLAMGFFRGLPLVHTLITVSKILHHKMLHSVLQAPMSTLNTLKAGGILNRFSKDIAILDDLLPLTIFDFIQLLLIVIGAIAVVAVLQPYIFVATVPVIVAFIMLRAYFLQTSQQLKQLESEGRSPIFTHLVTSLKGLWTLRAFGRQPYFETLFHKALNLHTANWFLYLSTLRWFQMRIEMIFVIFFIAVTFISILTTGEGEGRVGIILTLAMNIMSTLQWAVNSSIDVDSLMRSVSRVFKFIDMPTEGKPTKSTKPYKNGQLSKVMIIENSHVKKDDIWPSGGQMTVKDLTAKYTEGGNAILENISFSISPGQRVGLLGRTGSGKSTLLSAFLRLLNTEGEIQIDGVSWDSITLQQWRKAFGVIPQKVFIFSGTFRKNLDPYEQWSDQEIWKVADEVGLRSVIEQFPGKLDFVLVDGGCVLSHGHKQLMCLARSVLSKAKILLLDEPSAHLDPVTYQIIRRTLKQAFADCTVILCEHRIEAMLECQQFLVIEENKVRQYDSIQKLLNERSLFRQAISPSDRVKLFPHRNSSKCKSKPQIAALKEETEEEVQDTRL

| Structure (SMILES) | EC50 [nM] | Maximum % activity (%) |
| --- | --- | --- |
| COc1ccc2c(c1)O[C@@H](c1cccc(C(=O)O)c1)C[C@H]2NC(=O)[C@]1(C)COc2cc3c(cc21)OC(F)(F)O3 [Example 13, 3-[(2R,4R)-4-{[(7S)-2,2-difluoro-7-methyl-6,7-dihydro-2H-furo[2,3-f][1,3]benzodioxole-7-carbonyl]amino}-7-methoxy-3,4-dihydro-2H-1-benzopyran-2-yl]benzoic acid] | 8810 | 72 |
| COc1ccc2c(c1)O[C@@H](c1cccc(C(=O)O)c1)C[C@H]2NC(=O)[C@@]1(C)COc2cc3c(cc21)OC(F)(F)O3 [Example 14, 3-[(2R,4R)-4-{[(7R)-2,2-difluoro-7-methyl-6,7-dihydro-2H-furo[2,3-f][1,3]benzodioxole-7-carbonyl]amino}-7-methoxy-3,4-dihydro-2H-1-benzopyran-2-yl]benzoic acid] | 380 | 187 |
| COC(=O)c1ccc([C@H]2C[C@@H](NC(=O)C3(C)COc4cc5c(cc43)OC(F)(F)O5)c3ccc(OC)cc3O2)cc1 (stereo partly drawn) [Example 15, methyl 4-{(2R,4R)-4-[(2,2-difluoro-7-methyl-6,7-dihydro-2H-furo[2,3-f][1,3]benzodioxole-7-carbonyl)amino]-7-methoxy-3,4-dihydro-2H-1-benzopyran-2-yl}benzoate] | 150 | 143 |
| COc1ccc2c(c1)O[C@@H](c1ccc(C(=O)O)cc1)C[C@H]2NC(=O)C1(C)COc2cc3c(cc21)OC(F)(F)O3 (stereo partly drawn) [Example 16, 4-{(2R,4R)-4-[(2,2-difluoro-7-methyl-6,7-dihydro-2H-furo[2,3-f][1,3]benzodioxole-7-carbonyl)amino]-7-methoxy-3,4-dihydro-2H-1-benzopyran-2-yl}benzoic acid] | 60 | 150 |
| COC(=O)c1ccc([C@H]2C[C@@H](NC(=O)[C@]3(C)COc4cc5c(cc43)OC(F)(F)O5)c3ccc(OC)cc3O2)cc1 [Example 17, methyl 4-[(2R,4R)-4-{[(7S)-2,2-difluoro-7-methyl-6,7-dihydro-2H-furo[2,3-f][1,3]benzodioxole-7-carbonyl]amino}-7-methoxy-3,4-dihydro-2H-1-benzopyran-2-yl]benzoate] | 8770 | 31 |
| COc1ccc2c(c1)O[C@@H](c1ccc(C(=O)O)cc1)C[C@H]2NC(=O)[C@]1(C)COc2cc3c(cc21)OC(F)(F)O3 [Example 18, 4-[(2R,4R)-4-{[(7S)-2,2-difluoro-7-methyl-6,7-dihydro-2H-furo[2,3-f][1,3]benzodioxole-7-carbonyl]amino}-7-methoxy-3,4-dihydro-2H-1-benzopyran-2-yl]benzoic acid] | 5750 | 91 |
| COC(=O)c1ccc([C@H]2C[C@@H](NC(=O)[C@@]3(C)COc4cc5c(cc43)OC(F)(F)O5)c3ccc(OC)cc3O2)cc1 [Example 19, methyl 4-[(2R,4R)-4-{[(7R)-2,2-difluoro-7-methyl-6,7-dihydro-2H-furo[2,3-f][1,3]benzodioxole-7-carbonyl]amino}-7-methoxy-3,4-dihydro-2H-1-benzopyran-2-yl]benzoate] | 80 | 130 |
| C[C@]1(C(=O)N[C@@H]2C[C@H](c3cccc(C(=O)O)c3)Oc3ccccc32)COc2cc3c(cc21)OC(F)(F)O3 [Example 22, 3-[(2R,4R)-4-{[(7R)-2,2-difluoro-7-methyl-6,7-dihydro-2H-furo[2,3-f][1,3]benzodioxole-7-carbonyl]amino}-3,4-dihydro-2H-1-benzopyran-2-yl]benzoic acid] | 640 | 156 |
| C[C@]1(C(=O)N[C@@H]2C[C@H](c3ccc(C(=O)O)cc3)Oc3ccccc32)COc2cc3c(cc21)OC(F)(F)O3 [Example 23, 4-[(2R,4R)-4-{[(7R)-2,2-difluoro-7-methyl-6,7-dihydro-2H-furo[2,3-f][1,3]benzodioxole-7-carbonyl]amino}-3,4-dihydro-2H-1-benzopyran-2-yl]benzoic acid] | 180 | 127 |
| CC1(C)OC[C@@H](Cn2nc(-c3ccccc3)cc(NC(=O)C3(C)COc4cc5c(cc43)OC(F)(F)O5)c2=O)O1 (stereo partly drawn) [Example 24, N-(2-{[(4R)-2,2-dimethyl-1,3-dioxolan-4-yl]methyl}-3-oxo-6-phenyl-2,3-dihydropyridazin-4-yl)-2,2-difluoro-7-methyl-6,7-dihydro-2H-furo[2,3-f][1,3]benzodioxole-7-carboxamide] | 1180 | 70 |
| CC1(C)OC[C@@H](Cn2nc(-c3ccccc3)cc(NC(=O)[C@@]3(C)COc4cc5c(cc43)OC(F)(F)O5)c2=O)O1 [Example 26, (7R)—N-(2-{[(4R)-2,2-dimethyl-1,3-dioxolan-4-yl]methyl}-3-oxo-6-phenyl-2,3-dihydropyridazin-4-yl)-2,2-difluoro-7-methyl-6,7-dihydro-2H-furo[2,3-f][1,3]benzodioxole-7-carboxamide] | 980 | 85 |
| COC(=O)c1cccc(-n2nc(C3CC3)cc(NC(=O)[C@@]3(C)COc4cc5c(cc43)OC(F)(F)O5)c2=O)c1 [Example 28, methyl 3-[3-cyclopropyl-5-{[(7R)-2,2-difluoro-7-methyl-6,7-dihydro-2H-furo[2,3-f][1,3]benzodioxole-7-carbonyl]amino}-6-oxopyridazin-1(6H)-yl]benzoate] | 1420 | 112 |
| C[C@]1(C(=O)Nc2cc(C3CC3)nn(-c3cccc(C(=O)O)c3)c2=O)COc2cc3c(cc21)OC(F)(F)O3 [Example 29, 3-[3-cyclopropyl-5-{[(7R)-2,2-difluoro-7-methyl-6,7-dihydro-2H-furo[2,3-f][1,3]benzodioxole-7-carbonyl]amino}-6-oxopyridazin-1(6H)-yl]benzoic acid] | 1070 | 155 |
| C[C@@]1(C(=O)Nc2cc(C3CC3)nn(-c3ccc(C(=O)O)cc3)c2=O)COc2cc3c(cc21)OC(F)(F)O3 [Example 31, 4-[3-cyclopropyl-5-{[(7S)-2,2-difluoro-7-methyl-6,7-dihydro-2H-furo[2,3-f][1,3]benzodioxole-7-carbonyl]amino}-6-oxopyridazin-1(6H)-yl]benzoic acid] | > 20000 | 7 |
| COC(=O)c1cccc(-n2nc(C3CC3)cc(NC(=O)C3(C)COc4cc5c(cc43)OC(F)(F)O5)c2=O)c1 (stereo not drawn) [Example 40, methyl 3-{3-cyclopropyl-5-[(2,2-difluoro-7-methyl-6,7-dihydro-2H-furo[2,3-f][1,3]benzodioxole-7-carbonyl)amino]-6-oxopyridazin-1(6H)-yl}benzoate] | 210 | 132 |
| CC1(C)OC[C@@H](Cn2nc(-c3ccccc3)cc(NC(=O)[C@]3(C)COc4cc5c(cc43)OC(F)(F)O5)c2=O)O1 [Example 41, (7S)—N-(2-{[(4R)-2,2-dimethyl-1,3-dioxolan-4-yl]methyl}-3-oxo-6-phenyl-2,3-dihydropyridazin-4-yl)-2,2-difluoro-7-methyl-6,7-dihydro-2H-furo[2,3-f][1,3]benzodioxole-7-carboxamide] | > 20000 | 3 |
| COc1ccc2c(c1)O[C@@H](c1ccc(C(=O)O)cc1)C[C@H]2NC(=O)[C@@]1(C)CCc2c1ccc1c2OCO1 [Example 42, 4-[(2R,4R)-7-methoxy-4-{[(6S)-6-methyl-7,8-dihydro-2H,6H-indeno[4,5-d][1,3]dioxole-6-carbonyl]amino}-3,4-dihydro-2H-1-benzopyran-2-yl]benzoic acid] | 1060 | 61 |
| Cc1ccc(NC(=O)C2(C)CCc3cc4c(cc32)OC(F)(F)O4)nc1-c1cccc(C(=O)O)c1 (stereo not drawn) [Example 51, 3-{6-[(2,2-difluoro-5-methyl-6,7-dihydro-2H,5H-indeno[5,6-d][1,3]dioxole-5-carbonyl)amino]-3-methylpyridin-2-yl}benzoic acid] | 930 | 153 |
